These results are taken from patent publication US8134015B2, “Compound inhibiting in vivo phosphorous transport and medicine containing the same” (Kyowa Hakko Kirin Co., Ltd., priority 2003, dated 2012).

Bounds are passed on as bounds.

This experiment concerns the target T1, rat NaPi-2b (Rattus norvegicus, UniProt Q9JJ09).
T1 construct: expressed in transfected cells; host or cells: Xenopus oocytes injected with cRNA
T1 sequence (Q9JJ09 1-695): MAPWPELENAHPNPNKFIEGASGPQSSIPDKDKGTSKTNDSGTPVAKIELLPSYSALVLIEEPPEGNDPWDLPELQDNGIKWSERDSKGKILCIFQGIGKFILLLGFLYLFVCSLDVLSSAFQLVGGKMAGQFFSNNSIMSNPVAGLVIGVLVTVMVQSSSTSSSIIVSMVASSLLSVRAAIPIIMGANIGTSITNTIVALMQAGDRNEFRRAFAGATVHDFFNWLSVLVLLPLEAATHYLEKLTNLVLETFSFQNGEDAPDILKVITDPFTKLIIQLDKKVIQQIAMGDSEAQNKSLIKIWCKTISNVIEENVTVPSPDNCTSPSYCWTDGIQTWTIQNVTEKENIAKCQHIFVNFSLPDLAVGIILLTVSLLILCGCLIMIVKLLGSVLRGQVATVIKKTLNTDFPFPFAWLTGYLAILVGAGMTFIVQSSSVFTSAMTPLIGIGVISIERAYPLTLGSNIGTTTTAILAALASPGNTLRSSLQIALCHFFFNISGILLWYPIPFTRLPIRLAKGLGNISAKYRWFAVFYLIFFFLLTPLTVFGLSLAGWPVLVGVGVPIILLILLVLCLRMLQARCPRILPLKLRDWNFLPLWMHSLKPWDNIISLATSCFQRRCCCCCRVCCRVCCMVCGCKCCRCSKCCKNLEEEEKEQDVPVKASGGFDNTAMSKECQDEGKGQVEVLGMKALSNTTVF
Kind of experiment: Sodium-dependent phosphate uptake of Xenopus oocytes which expressed NaPi-2b (32P). It counts as cell-based. The settings on record: for IC50: Xenopus oocytes expressing rat NaPi-2b, 32P radioactive phosphorus, read-out: IC50 (phosphate uptake inhibitory activity); for inhibition at 300 µM: phosphate uptake, oocytes expressing rat NaPi-2b, determined from inhibition curve. A digest of the protocol:
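Rat small-intestine NaPi-2b cRNA injected into Xenopus oocytes, expressed for 2 days. Sodium-dependent phosphate uptake measured with 32P; % inhibition at 300 and 100 μM taken from the same inhibition curve.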

What is called IC50 is the midpoint of a concentration-inhibition curve. `CCN(CC)CCN(C)Cc1cccc(C(=O)Nc2sccc2C(=O)N/N=C/c2ccc(F)cc2)c1` [Compound 666, 3-{[(2-Diethylamino-ethyl)-methyl-amino]-methyl}-N-[3-(4-fluoro-benzylidene-hydrazinocarbonyl)-thiophen-2-yl]-benzamide]: the IC50 is 31.2 µM. On the same count and under the same terms, in the case of `CCN(CC)CCN(C)Cc1cccc(C(=O)Nc2sccc2C(=O)N/N=C/c2cccc(F)c2)c1` [Compound 667, 3-{[(2-Diethylamino-ethyl)-methyl-amino]-methyl}-N-[3-(3-fluoro-benzylidene-hydrazinocarbonyl)-thiophen-2-yl]-benzamide] it was 30.5 µM. In the case of `CCN(CC)CCN(C)Cc1cccc(C(=O)Nc2sccc2C(=O)N/N=C/c2ccc(Cl)c(C(F)(F)F)c2)c1` [Compound 668, N-[3-(4-Chloro-3-trifluoromethyl-benzylidene-hydrazinocarbonyl)-thiophen-2-yl]-3-{[(2-diethylamino-ethyl)-methyl-amino]-methyl}-benzamide], the IC50 amounted to 9.13 µM. On the same count and under the same terms, the value for `CCN(CC)CCN(C)Cc1cccc(C(=O)Nc2sccc2C(=O)N/N=C/c2ccc(OC)cc2)c1` [Compound 669, 3-{[(2-Diethylamino-ethyl)-methyl-amino]-methyl}-N-[3-(4-methoxy-benzylidene-hydrazinocarbonyl)-thiophen-2-yl]-benzamide] was 15.3 µM. As usually defined, the inhibition is the change of the read-out against control, counted positive when it falls. Read a low inhibition as little suppression. On to `Cc1ccc(/C=N/NC(=O)c2ccsc2NC(=O)c2cccc(CN(CC(C)O)CC(C)O)c2)cc1C` (centres unmarked) [Compound 670, 3-{[Bis-(2-hydroxy-propyl)-amino]-methyl}-N-[3-(3,4-dimethyl-benzylidene-hydrazinocarbonyl)-thiophen-2-yl]-benzamide], for which 300 µM produced 70.2% inhibition. In the case of `Cc1ccc(/C=N/NC(=O)c2ccsc2NC(=O)c2cccc(CN(CC(C)O)CC(C)O)c2)cc1` (centres unmarked) [Compound 671, 3-{[Bis-(2-hydroxy-propyl)-amino]-methyl}-N-[3-(4-methyl-benzylidene-hydrazinocarbonyl)-thiophen-2-yl]-benzamide], the IC50 was under 3 µM. As for `CC(O)CN(Cc1cccc(C(=O)Nc2sccc2C(=O)N/N=C/c2ccc(F)cc2)c1)CC(C)O` (centres unmarked) [Compound 672, 3-{[Bis-(2-hydroxy-propyl)-amino]-methyl}-N-[3-(4-fluoro-benzylidene-hydrazinocarbonyl)-thiophen-2-yl]-benzamide], the IC50 came to 31.2 µM. For the compound `CC(O)CN(Cc1cccc(C(=O)Nc2sccc2C(=O)N/N=C/c2cccc(F)c2)c1)CC(C)O` (centres unmarked) [Compound 673, 3-{[Bis-(2-hydroxy-propyl)-amino]-methyl}-N-[3-(3-fluoro-benzylidene-hydrazinocarbonyl)-thiophen-2-yl]-benzamide], the IC50 came to 10.1 µM. The compound `CCN(CC)CCN(C)Cc1cccc(-c2nc3sc4c(c3c(=O)n2/N=C/c2ccc(Cl)c(C(F)(F)F)c2)CCCC4)c1` [Compound 674, 3-[(4-Chloro-3-trifluoromethyl-benzylidene)-amino]-2-(3-{[(2-diethylamino-ethyl)-methyl-amino]-methyl}-phenyl)-5,6,7,8-tetrahydro-3H-benzo[4,5]thieno[2,3-d]pyrimidin-4-one] came in with an inhibition at 300 µM of 85.1%. For the compound `CCN(CC)CCN(C)Cc1cccc(-c2nc3sc4c(c3c(=O)n2/N=C/c2ccc(OC)cc2)CCCC4)c1` [Compound 675, 2-(3-{[(2-Diethylamino-ethyl)-methyl-amino]-methyl}-phenyl)-3-[(4-methoxy-benzylidene-)-amino]-5,6,7,8-tetrahydro-3H-benzo[4,5]thieno[2,3-d]pyrimidin-4-one], the IC50 was under 3 µM. For the compound `Cc1ccc(/C=N/NC(=O)c2cc(Br)ccc2NC(=O)c2cccc(CS(=O)(=O)CCO)c2)cc1` [Compound 676, N-[4-Bromo-2-(4-methyl-benzylidene-hydrazinocarbonyl)-phenyl]-3-(2-hydroxy-ethanesulfonylmethyl)-benzamide], the IC50 was under 3 µM. For the compound `Cc1ccc(/C=N/NC(=O)c2cc(Br)ccc2NC(=O)c2cccc(C[S+]([O-])CCO)c2)cc1` (centres unmarked) [Compound 677, N-[4-Bromo-2-(4-methyl-benzylidene-hydrazinocarbonyl)-phenyl]-3-(2-hydroxy-ethanesulfinylmethyl)-benzamide], the IC50 was under 3 µM. On the same count and under the same terms, the value for `O=C(Nc1ccc(Br)cc1C(=O)N/N=C/c1ccc(Cl)c(C(F)(F)F)c1)c1cccc(CS(=O)(=O)CCO)c1` [Compound 678, N-[4-Bromo-2-(4-chloro-3-trifluoromethyl-benzylidene-hydrazinocarbonyl)-phenyl]-3-(2-hydroxy-ethanesulfonylmethyl)-benzamide] was under 3 µM. As to `O=C(Nc1ccc(Br)cc1C(=O)N/N=C/c1ccc(Cl)c(C(F)(F)F)c1)c1cccc(C[S+]([O-])CCO)c1` (centres unmarked) [Compound 679, N-[4-Bromo-2-(4-chloro-3-trifluoromethyl-benzylidene-hydrazinocarbonyl)-phenyl]-3-(2-hydroxy-ethanesulfinylmethyl)-benzamide], the IC50 was under 3 µM. The same measure, in the same setting: the value for `O=C(Nc1ccc(Cl)cc1C(=O)N/N=C/c1cccc(F)c1)c1cccc(CSCc2ccco2)c1` [Compound 680, N-[4-Chloro-2-(3-fluoro-benzylidene-hydrazinocarbonyl)-phenyl]-3-(furan-2-ylmethylsulfanylmethyl)-benzamide] was 4.04 µM; that for `O=C(Nc1ccc(Cl)cc1C(=O)N/N=C/c1ccc(F)cc1)c1cccc(CSCc2ccco2)c1` [Compound 681, N-[4-Chloro-2-(4-fluoro-benzylidene-hydrazinocarbonyl)-phenyl]-3-(furan-2-ylmethylsulfanylmethyl)-benzamide] was 25.9 µM; that for `Cc1ccc(/C=N/NC(=O)c2cc(Cl)ccc2NC(=O)c2cccc(CSCc3ccco3)c2)cc1` [Compound 682, N-[4-Chloro-2-(4-methyl-benzylidene-hydrazinocarbonyl)-phenyl]-3-(furan-2-ylmethylsulfanylmethyl)-benzamide] was 12.5 µM. Take `Cc1ccc(/C=N/NC(=O)c2cc(Cl)ccc2NC(=O)c2cccc(CSCc3ccco3)c2)cc1C` [Compound 683, N-[4-Chloro-2-(3,4-dimethyl-benzylidene-hydrazinocarbonyl)-phenyl]-3-(furan-2-ylmethylsulfanylmethyl)-benzamide]: the IC50 was under 3 µM. Consider `Cc1ccc(/C=N/NC(=O)c2cc(Cl)ccc2NC(=O)c2cccc(CN(C)CCCN(C)Cc3cccc(C(=O)Nc4ccc(Cl)cc4C(=O)N/N=C/c4ccc(C)c(C)c4)c3)c2)cc1C` [Compound 684, N1-[4-Chloro-2-({2-[(E)-1-(3,4-dimethylphenyl)methylidene]hydrazino}carbonyl}phenyl}-3-{[{3-[(3-{[4-chloro-2-({2-[(E)-1-(3,4-dimethylphenyl)methylidene]hydrazino}carbonyl}anilino}carbonyl}benzyl}(methyl)amino)propyl](methyl)amino)methyl)benzamide], for which the IC50 came to 54.3 µM. On the same count and under the same terms, in the case of `CN(CCCN(C)Cc1cccc(C(=O)Nc2ccc(Cl)cc2C(=O)N/N=C/c2cccc(F)c2)c1)Cc1cccc(C(=O)Nc2ccc(Cl)cc2C(=O)N/N=C/c2cccc(F)c2)c1` [Compound 685, N1-[4-Chloro-2-({2-[(E)-1-(3-fluorophenyl)methylidene]hydrazino}carbonyl}phenyl}-3-{[{3-[(3-{[4-chloro-2-({2-[(E)-1-(3-fluorophenyl)methylidene]hydrazino}carbonyl}-anilino}carbonyl}benzyl}(methyl)amino)propyl)(methyl)amino]methyl]-benzamide] it was 36.4 µM.
